Assay [1] has as its system Acinetobacter baumannii. The experiment in a line: microbe, parasite or virus in culture. The conditions noted are these: ATCC 19606, 18 h, ASSAY_TEST Inhibition of Bacterial Growth, detection method Absorption (OD600), MEDIA CAMHB, plate type 384well, NBS, CORNING #3640.
Description: Antibacterial activity against Acinetobacter baumannii ATCC 19606 (CO-ADD:GN_034); MIC in CAMBH media using NBS plates, by OD600
Assay [2] concerns Escherichia coli. In words: microbe, parasite or virus in culture. The conditions noted are these: ATCC 25922, 18 h, ASSAY_TEST Inhibition of Bacterial Growth, detection method Absorption (OD600), MEDIA CAMHB, plate type 384well, NBS, CORNING #3640.
Description: Antibacterial activity against Escherichia coli ATCC 25922 (CO-ADD:GN_001); MIC in CAMBH media using NBS plates, by OD(600)
Assay [3] has as its system HEK293. In words: cells. It counts as functional. The conditions noted are these: Homo sapiens, ATCC CRL1573, HEK293; ASSAY_TEST Inhibition of Cell Viability; detection method Resazurin; Fluorescence (ex560/em590); MEDIA DMEM with 10% FBS; plate type 384well; TC; CORNING #3712; time 18 hr.
In assay [4] the test system is Staphylococcus aureus. The experiment in a line: microbe, parasite or virus in culture. The conditions noted are these: ATCC 43300, 18 h, ASSAY_TEST Inhibition of Bacterial Growth, detection method Absorption (OD600), MEDIA CAMHB, plate type 384well, NBS, CORNING #3640.
Description: Antibacterial activity against Staphylococcus aureus MRSA ATCC 43300 (CO-ADD:GP_020); MIC in CAMBH media, using NBS plates, by OD(600)
Assay [5] has as its system Candida albicans. In words: microbe, parasite or virus in culture. The conditions noted are these: ATCC 90028, ASSAY_TEST Inhibition of Fungal Growth, detection method Absorption (OD530), plate type 384well, NBS, CORNING #3640.
Description: Antifungal activity against Candida albicans ATCC 90028 (CO-ADD:FG_001); MIC in YNB media using NBS plates, by OD630
Assay [6] relates to Pseudomonas aeruginosa. The experiment in a line: microbe, parasite or virus in culture. The conditions noted are these: ATCC 27853, 18 h, ASSAY_TEST Inhibition of Bacterial Growth, detection method Absorption (OD600), MEDIA CAMHB, plate type 384well, NBS, CORNING #3640.
Description: Antibacterial activity against Pseudomonas aeruginosa ATCC 27853 (CO-ADD:GN_042); MIC in CAMBH media using NBS plates, by OD(600)
Assay [7] relates to Klebsiella pneumoniae. The experiment in a line: microbe, parasite or virus in culture. The conditions noted are these: ATCC 700603, 18 h, ASSAY_TEST Inhibition of Bacterial Growth, detection method Absorption (OD600), MEDIA CAMHB, plate type 384well, NBS, CORNING #3640.
Description: Antibacterial activity against Klebsiella pneumoniae MDR ATCC 70063 (CO-ADD:GN_003); MIC in CAMBH media using NBS plates, by OD(600)
The subject of assay [8] is Cryptococcus neoformans.
Description: Antifungal activity against Cryptococcus neoformans H99 ATCC 208821 (CO-ADD:FG_002); MIC in YNB media using NBS plates, by Resazurin OD(600-570)

In brackets after ≈: the same amount, converted by molar mass. Where only a bound is given, the exact number is not on record here.

For `NC1(N2SC(S)=C3CCCC=C32)CCCCC1`, the MIC was more than 10 µM in assay [1]; more than 10 µM in assay [2]; 10 µM (≈ 2.68 µg/mL) in assay [4]; more than 10 µM in assay [5]; more than 10 µM in assay [6]; more than 10 µM in assay [7]. Also, the MIC in assay [8] was more than 10 µM. The compound also showed a CC50 in assay [3] of more than 10 µM.

On to `C=Cc1cc(OC)c2c(c1)c(=O)oc1c2cc(OC)c2c(O)ccc(C3OC(C)C(O)C(C)(O)C3O)c21` (stereo not given), for which the MIC was more than 10 µM in assay [1]; more than 10 µM in assay [2]; 0.156 µM (≈ 0.0795 µg/mL) in assay [4]; more than 10 µM in assay [5]; more than 10 µM in assay [6]; more than 10 µM in assay [7]. The MIC in assay [8] was more than 10 µM. Also, in assay [3], the CC50 was determined as 1.85 µM.

Regarding `O=[N+]([O-])c1ccc(Sc2cccc[n+]2[O-])c2nonc12`, the MIC in assay [1] was more than 10 µM; in assay [2] it was more than 10 µM; in assay [4], more than 10 µM; in assay [5] it was 1.25 µM (≈ 0.363 µg/mL); in assay [6], more than 10 µM; in assay [7], more than 10 µM. In assay [8], this compound came in with an MIC of 10 µM (≈ 2.9 µg/mL). Also, in assay [3], it took 2.53 µM to reach half-maximal cytotoxicity (CC50).

As for `CCCCOc1ccc(/N=N\c2ccc(N)nc2N)cn1`, the MIC in assay [1], in assay [2], in assay [4], in assay [5], in assay [6] and in assay [7] was more than 10 µM in each case. The MIC in assay [8] was more than 10 µM. The same compound returned a CC50 in assay [3] of more than 10 µM.

For `O=C(Nc1cccc(-c2nc3ccccc3[nH]2)c1)c1ccc(C(=O)Nc2cccc(-c3nc4ccccc4[nH]3)c2)cc1`, the MIC in assay [1], in assay [2], in assay [4], in assay [5], in assay [6] and in assay [7] was more than 10 µM each time. Also, the MIC in assay [8] was more than 10 µM. This compound also yielded a CC50 in assay [3] of more than 10 µM.

For `Sc1nc2cc(-c3ccccc3)ccc2o1`, the MIC in assay [1], in assay [2], in assay [4], in assay [5], in assay [6] and in assay [7] was more than 10 µM throughout. Besides, the MIC in assay [8] is more than 10 µM. The same compound gave a CC50 in assay [3] of more than 10 µM.

Turning to `O=C1C=CC(=O)N1c1ccc(I)cc1Cl`, the MIC in assay [1], in assay [2], in assay [4], in assay [5], in assay [6] and in assay [7] was more than 10 µM throughout. Besides, the MIC in assay [8] was more than 10 µM. Further, the CC50 in assay [3] was more than 10 µM.

Regarding `O=C(O)c1[nH]c(=O)[nH]c(=O)c1F`, the MIC in assay [1], in assay [2], in assay [4], in assay [5], in assay [6] and in assay [7] was more than 10 µM each time. This compound also showed an MIC in assay [8] of more than 10 µM. In addition, the half-maximal cytotoxic concentration (CC50) in assay [3] is more than 10 µM.

Take `Nc1ccc(Cn2ccc3c4c(N)nc(N)nc4ccc32)cc1`: the MIC in assay [1] is more than 10 µM; in assay [2] it was 1.25 µM (≈ 0.38 µg/mL); in assay [4], 1.25 µM (≈ 0.38 µg/mL); in assay [5], more than 10 µM; in assay [6] it was 5 µM (≈ 1.52 µg/mL); in assay [7], 5 µM (≈ 1.52 µg/mL). In addition, the MIC in assay [8] was more than 10 µM. The compound further registered a CC50 in assay [3] of more than 10 µM.

For the compound `Cc1ccc(NCCN(C)C)c2c(=O)c3cc(O)ccc3sc12`, the MIC in assay [1], in assay [2], in assay [4], in assay [5], in assay [6] and in assay [7] was more than 10 µM in each case. This compound had an MIC in assay [8] of more than 10 µM. This compound also gave a CC50 in assay [3] of 1.3 µM.

With `N=C(N)NCCCS(=O)(=O)Nc1ccc(Nc2c3ccccc3nc3cc([N+](=O)[O-])ccc23)cc1`, the MIC in assay [1], in assay [2], in assay [4], in assay [5], in assay [6] and in assay [7] was more than 10 µM each time. Further, the MIC in assay [8] is more than 10 µM. Also, in assay [3], the 50% cytotoxic concentration (CC50) was more than 10 µM.

For the compound `O=C(Nc1ccc(Cl)c(Cl)c1)Nc1ccc([N+](=O)[O-])cn1`, the MIC in assay [1], in assay [2], in assay [4], in assay [5], in assay [6] and in assay [7] was more than 10 µM in each case. This compound came in with an MIC in assay [8] of more than 10 µM. In assay [3], this compound showed a 50% cytotoxic concentration (CC50) of more than 10 µM.

Regarding `COc1ccccc1/C=C/C(=O)/C=C/c1ccccc1O`, the MIC in assay [1], in assay [2], in assay [4], in assay [5], in assay [6] and in assay [7] was more than 10 µM in each case. For the same compound, the MIC in assay [8] was more than 10 µM. Further, in assay [3], half-maximal cytotoxicity (CC50) was put at 3.95 µM.

On to `Oc1c(CN2CCN(c3ccccc3)CC2)cc(Br)c2cccnc12`, for which the MIC in assay [1], in assay [2], in assay [4], in assay [5], in assay [6] and in assay [7] was more than 10 µM throughout. In assay [8], this compound displayed an MIC of more than 10 µM. In assay [3], this compound yielded a CC50 of more than 10 µM.

With `O=C(O)C(=O)Nc1nc[nH]n1`, the MIC in assay [1], in assay [2], in assay [4], in assay [5], in assay [6] and in assay [7] was more than 10 µM in each case. In assay [8], this compound had an MIC of more than 10 µM. The compound further gave a cytotoxic concentration (CC50) in assay [3] of more than 10 µM.

Regarding `COC1C(OC(=O)c2ccc(C)[nH]2)C(O)C(Oc2ccc3c(O)c(NC(=O)c4ccc(O)c(CC=C(C)C)c4)c(=O)oc3c2Cl)OC1(C)C` (stereo not given), the MIC in assay [1] was more than 10 µM; in assay [2], more than 10 µM; in assay [4], not above 0.0781 µM; in assay [5], more than 10 µM; in assay [6] it was 10 µM (≈ 6.97 µg/mL); in assay [7], more than 10 µM. Also, in assay [8], the MIC was more than 10 µM. For the same compound, the CC50 in assay [3] amounted to 9.55 µM.

In the case of `C/C(=N/NC(=S)N1CC2CCC(CC2)C1)c1cnccn1`, the MIC is more than 10 µM in assay [1]; more than 10 µM in assay [2]; more than 10 µM in assay [4]; 2.5 µM (≈ 0.759 µg/mL) in assay [5]; more than 10 µM in assay [6]; more than 10 µM in assay [7]. In assay [8], the MIC was more than 10 µM. The CC50 in assay [3] was more than 10 µM.

For the compound `O=C(Nc1ccc(C2=NCCN2)cc1)c1ccc(Cl)c(C(=O)Nc2ccc(C3=NCCN3)cc2)c1`, the MIC in assay [1], in assay [2], in assay [4], in assay [5], in assay [6] and in assay [7] was more than 10 µM throughout. In assay [8], this compound had an MIC of more than 10 µM. Besides, the CC50 in assay [3] was more than 10 µM.

With `Cn1c(=S)c2nc(SCCN3CCCC3)[nH]c2n(C)c1=O`, the MIC in assay [1] is more than 10 µM; in assay [2], 0.156 µM (≈ 0.0509 µg/mL); in assay [4], more than 10 µM; in assay [5], more than 10 µM; in assay [6] it was more than 10 µM; in assay [7], more than 10 µM. The compound also yielded an MIC in assay [8] of more than 10 µM. The compound also had a CC50 in assay [3] of more than 10 µM.

Regarding `Cn1ccc(=Nc2ccc(NC(=O)c3ccc(/N=c4\ccn(C)c5ccc([N+](=O)[O-])cc45)cc3)cc2)cc1`, the MIC in assay [1] was more than 10 µM; in assay [2] it was 10 µM (≈ 5.05 µg/mL); in assay [4] it was 10 µM (≈ 5.05 µg/mL); in assay [5], more than 10 µM; in assay [6], more than 10 µM; in assay [7], more than 10 µM. Further, the MIC in assay [8] was 5 µM (≈ 2.52 µg/mL). Further, the CC50 in assay [3] is more than 10 µM.

For the origin of these results see ChEMBL document CHEMBL4296182, “CO-ADD screening of NIH NCI Diversity Set V”.
